Numbers after ± are expanded uncertainties.
Assay: xn = mol fraction of the nth substance listed
Conditions: for surface tension liquid-gas: Ring tensiometer; for mass density / speed of sound / viscosity: 100 kPa, Liquid

CCN1CCCC1=O [1-ethyl-2-pyrrolidinone] + NCCO
surface tension liquid-gas (293.15 K, x1 = 0.1): 44.9 ± 0.9 mN/m
surface tension liquid-gas (293.15 K, x1 = 0.2002): 42.4 ± 0.8 mN/m
surface tension liquid-gas (293.15 K, x1 = 0.2999): 41.1 ± 0.8 mN/m
surface tension liquid-gas (293.15 K, x1 = 0.4002): 39.8 ± 0.8 mN/m
surface tension liquid-gas (293.15 K, x1 = 0.4999): 39.1 ± 0.8 mN/m
surface tension liquid-gas (293.15 K, x1 = 0.5996): 38.3 ± 0.8 mN/m
surface tension liquid-gas (293.15 K, x1 = 0.7002): 37.7 ± 0.8 mN/m
surface tension liquid-gas (293.15 K, x1 = 0.7999): 37.3 ± 0.8 mN/m
surface tension liquid-gas (293.15 K, x1 = 0.8997): 37.1 ± 0.8 mN/m
surface tension liquid-gas (293.15 K, x1 = 1): 36.5 ± 0.8 mN/m
mass density (293.15 K, x1 = 0.1): 1014.83 ± 1.1 kg/m3
speed of sound (293.15 K, x1 = 0.1): 1694.5 ± 4 m/s
viscosity (293.15 K, x1 = 0.1): 16.56 ± 0.2 mPa·s
mass density (293.15 K, x1 = 0.2002): 1012.06 ± 1.1 kg/m3
speed of sound (293.15 K, x1 = 0.2002): 1652.1 ± 4 m/s
viscosity (293.15 K, x1 = 0.2002): 11.56 ± 0.14 mPa·s
mass density (293.15 K, x1 = 0.2999): 1008.77 ± 1.2 kg/m3
speed of sound (293.15 K, x1 = 0.2999): 1621.1 ± 4 m/s
viscosity (293.15 K, x1 = 0.2999): 8.317 ± 0.11 mPa·s
mass density (293.15 K, x1 = 0.4002): 1006.13 ± 1.2 kg/m3
speed of sound (293.15 K, x1 = 0.4002): 1596 ± 4 m/s
viscosity (293.15 K, x1 = 0.4002): 6.255 ± 0.083 mPa·s
mass density (293.15 K, x1 = 0.4999): 1002.53 ± 1.2 kg/m3
speed of sound (293.15 K, x1 = 0.4999): 1575.8 ± 4 m/s
viscosity (293.15 K, x1 = 0.4999): 4.742 ± 0.066 mPa·s
mass density (293.15 K, x1 = 0.5996): 999.47 ± 1.3 kg/m3
speed of sound (293.15 K, x1 = 0.5996): 1554.4 ± 4 m/s
viscosity (293.15 K, x1 = 0.5996): 3.762 ± 0.053 mPa·s
mass density (293.15 K, x1 = 0.7002): 998.41 ± 1.3 kg/m3
speed of sound (293.15 K, x1 = 0.7002): 1540.5 ± 4 m/s
viscosity (293.15 K, x1 = 0.7002): 3.101 ± 0.044 mPa·s
mass density (293.15 K, x1 = 0.7999): 997.76 ± 1.4 kg/m3
speed of sound (293.15 K, x1 = 0.7999): 1529.1 ± 4.1 m/s
viscosity (293.15 K, x1 = 0.7999): 2.641 ± 0.039 mPa·s
mass density (293.15 K, x1 = 0.8997): 997.35 ± 1.5 kg/m3
speed of sound (293.15 K, x1 = 0.8997): 1519.5 ± 4.1 m/s
viscosity (293.15 K, x1 = 0.8997): 2.325 ± 0.035 mPa·s
mass density (293.15 K, x1 = 1): 997.91 ± 1.6 kg/m3
speed of sound (293.15 K, x1 = 1): 1513.2 ± 4.1 m/s
viscosity (293.15 K, x1 = 1): 2.132 ± 0.032 mPa·s
surface tension liquid-gas (303.15 K, x1 = 0.1): 43.7 ± 0.8 mN/m
surface tension liquid-gas (303.15 K, x1 = 0.2002): 41.2 ± 0.8 mN/m
surface tension liquid-gas (303.15 K, x1 = 0.2999): 39.8 ± 0.8 mN/m
surface tension liquid-gas (303.15 K, x1 = 0.4002): 38.5 ± 0.8 mN/m
surface tension liquid-gas (303.15 K, x1 = 0.4999): 37.6 ± 0.8 mN/m
surface tension liquid-gas (303.15 K, x1 = 0.5996): 36.7 ± 0.8 mN/m
surface tension liquid-gas (303.15 K, x1 = 0.7002): 36.1 ± 0.8 mN/m
surface tension liquid-gas (303.15 K, x1 = 0.7999): 36.2 ± 0.8 mN/m
surface tension liquid-gas (303.15 K, x1 = 0.8997): 35.7 ± 0.8 mN/m
surface tension liquid-gas (303.15 K, x1 = 1): 35.2 ± 0.8 mN/m
mass density (303.15 K, x1 = 0.1): 1006.71 ± 1.1 kg/m3
speed of sound (303.15 K, x1 = 0.1): 1661.1 ± 4 m/s
viscosity (303.15 K, x1 = 0.1): 10.66 ± 0.13 mPa·s
mass density (303.15 K, x1 = 0.2002): 1003.8 ± 1.1 kg/m3
speed of sound (303.15 K, x1 = 0.2002): 1617 ± 4 m/s
viscosity (303.15 K, x1 = 0.2002): 7.68 ± 0.096 mPa·s
mass density (303.15 K, x1 = 0.2999): 1000.38 ± 1.1 kg/m3
speed of sound (303.15 K, x1 = 0.2999): 1582.4 ± 3.9 m/s
viscosity (303.15 K, x1 = 0.2999): 6.051 ± 0.077 mPa·s
mass density (303.15 K, x1 = 0.4002): 997.65 ± 1.2 kg/m3
speed of sound (303.15 K, x1 = 0.4002): 1560.4 ± 3.9 m/s
viscosity (303.15 K, x1 = 0.4002): 4.76 ± 0.065 mPa·s
mass density (303.15 K, x1 = 0.4999): 993.9 ± 1.2 kg/m3
speed of sound (303.15 K, x1 = 0.4999): 1539.5 ± 4 m/s
viscosity (303.15 K, x1 = 0.4999): 3.526 ± 0.049 mPa·s
mass density (303.15 K, x1 = 0.5996): 990.78 ± 1.3 kg/m3
speed of sound (303.15 K, x1 = 0.5996): 1517.3 ± 4 m/s
viscosity (303.15 K, x1 = 0.5996): 2.912 ± 0.041 mPa·s
mass density (303.15 K, x1 = 0.7002): 989.74 ± 1.4 kg/m3
speed of sound (303.15 K, x1 = 0.7002): 1503.1 ± 4 m/s
viscosity (303.15 K, x1 = 0.7002): 2.446 ± 0.035 mPa·s
mass density (303.15 K, x1 = 0.7999): 989.12 ± 1.5 kg/m3
speed of sound (303.15 K, x1 = 0.7999): 1491.9 ± 4 m/s
viscosity (303.15 K, x1 = 0.7999): 2.147 ± 0.032 mPa·s
mass density (303.15 K, x1 = 0.8997): 988.75 ± 1.6 kg/m3
speed of sound (303.15 K, x1 = 0.8997): 1481.7 ± 4.1 m/s
viscosity (303.15 K, x1 = 0.8997): 1.918 ± 0.029 mPa·s
mass density (303.15 K, x1 = 1): 989.34 ± 1.6 kg/m3
speed of sound (303.15 K, x1 = 1): 1475 ± 4.1 m/s
viscosity (303.15 K, x1 = 1): 1.777 ± 0.027 mPa·s
surface tension liquid-gas (313.15 K, x1 = 0.1): 42.7 ± 0.8 mN/m
surface tension liquid-gas (313.15 K, x1 = 0.2002): 40.2 ± 0.8 mN/m
surface tension liquid-gas (313.15 K, x1 = 0.2999): 38.7 ± 0.8 mN/m
surface tension liquid-gas (313.15 K, x1 = 0.4002): 37 ± 0.8 mN/m
surface tension liquid-gas (313.15 K, x1 = 0.4999): 35.9 ± 0.8 mN/m
surface tension liquid-gas (313.15 K, x1 = 0.5996): 34.9 ± 0.8 mN/m
surface tension liquid-gas (313.15 K, x1 = 0.7002): 34.5 ± 0.8 mN/m
surface tension liquid-gas (313.15 K, x1 = 0.7999): 35 ± 0.8 mN/m
surface tension liquid-gas (313.15 K, x1 = 0.8997): 34.6 ± 0.8 mN/m
surface tension liquid-gas (313.15 K, x1 = 1): 34.2 ± 0.8 mN/m
mass density (313.15 K, x1 = 0.1): 998.53 ± 1 kg/m3
speed of sound (313.15 K, x1 = 0.1): 1628 ± 4 m/s
viscosity (313.15 K, x1 = 0.1): 7.237 ± 0.089 mPa·s
mass density (313.15 K, x1 = 0.2002): 995.42 ± 1.1 kg/m3
speed of sound (313.15 K, x1 = 0.2002): 1582.8 ± 3.9 m/s
viscosity (313.15 K, x1 = 0.2002): 5.477 ± 0.07 mPa·s
mass density (313.15 K, x1 = 0.2999): 991.88 ± 1.1 kg/m3
speed of sound (313.15 K, x1 = 0.2999): 1552.5 ± 3.9 m/s
viscosity (313.15 K, x1 = 0.2999): 4.386 ± 0.058 mPa·s
mass density (313.15 K, x1 = 0.4002): 989.14 ± 1.2 kg/m3
speed of sound (313.15 K, x1 = 0.4002): 1527.9 ± 3.9 m/s
viscosity (313.15 K, x1 = 0.4002): 3.553 ± 0.048 mPa·s
mass density (313.15 K, x1 = 0.4999): 985.23 ± 1.3 kg/m3
speed of sound (313.15 K, x1 = 0.4999): 1502.9 ± 3.9 m/s
viscosity (313.15 K, x1 = 0.4999): 2.733 ± 0.038 mPa·s
mass density (313.15 K, x1 = 0.5996): 982.08 ± 1.4 kg/m3
speed of sound (313.15 K, x1 = 0.5996): 1480.5 ± 3.9 m/s
viscosity (313.15 K, x1 = 0.5996): 2.322 ± 0.033 mPa·s
mass density (313.15 K, x1 = 0.7002): 981.06 ± 1.5 kg/m3
speed of sound (313.15 K, x1 = 0.7002): 1466.1 ± 4 m/s
viscosity (313.15 K, x1 = 0.7002): 1.99 ± 0.029 mPa·s
mass density (313.15 K, x1 = 0.7999): 980.46 ± 1.6 kg/m3
speed of sound (313.15 K, x1 = 0.7999): 1454.9 ± 4 m/s
viscosity (313.15 K, x1 = 0.7999): 1.775 ± 0.026 mPa·s
mass density (313.15 K, x1 = 0.8997): 980.14 ± 1.6 kg/m3
speed of sound (313.15 K, x1 = 0.8997): 1444.2 ± 4 m/s
viscosity (313.15 K, x1 = 0.8997): 1.616 ± 0.024 mPa·s
mass density (313.15 K, x1 = 1): 980.76 ± 1.7 kg/m3
speed of sound (313.15 K, x1 = 1): 1437.6 ± 4.1 m/s
viscosity (313.15 K, x1 = 1): 1.515 ± 0.023 mPa·s
mass density (323.15 K, x1 = 0.1): 990.31 ± 1.1 kg/m3
speed of sound (323.15 K, x1 = 0.1): 1594.2 ± 3.9 m/s
viscosity (323.15 K, x1 = 0.1): 5.201 ± 0.067 mPa·s
mass density (323.15 K, x1 = 0.2002): 986.95 ± 1.1 kg/m3
speed of sound (323.15 K, x1 = 0.2002): 1549.2 ± 3.9 m/s
viscosity (323.15 K, x1 = 0.2002): 4.011 ± 0.052 mPa·s
mass density (323.15 K, x1 = 0.2999): 983.29 ± 1.2 kg/m3
speed of sound (323.15 K, x1 = 0.2999): 1517.9 ± 3.9 m/s
viscosity (323.15 K, x1 = 0.2999): 3.311 ± 0.044 mPa·s
mass density (323.15 K, x1 = 0.4002): 980.53 ± 1.3 kg/m3
speed of sound (323.15 K, x1 = 0.4002): 1493.2 ± 3.9 m/s
viscosity (323.15 K, x1 = 0.4002): 2.734 ± 0.037 mPa·s
mass density (323.15 K, x1 = 0.4999): 976.53 ± 1.4 kg/m3
speed of sound (323.15 K, x1 = 0.4999): 1467 ± 3.9 m/s
viscosity (323.15 K, x1 = 0.4999): 2.183 ± 0.031 mPa·s
mass density (323.15 K, x1 = 0.5996): 973.35 ± 1.5 kg/m3
speed of sound (323.15 K, x1 = 0.5996): 1443.8 ± 3.9 m/s
viscosity (323.15 K, x1 = 0.5996): 1.884 ± 0.027 mPa·s
mass density (323.15 K, x1 = 0.7002): 972.34 ± 1.6 kg/m3
speed of sound (323.15 K, x1 = 0.7002): 1429.5 ± 3.9 m/s
viscosity (323.15 K, x1 = 0.7002): 1.659 ± 0.024 mPa·s
mass density (323.15 K, x1 = 0.7999): 971.78 ± 1.6 kg/m3
speed of sound (323.15 K, x1 = 0.7999): 1418 ± 4 m/s
viscosity (323.15 K, x1 = 0.7999): 1.503 ± 0.022 mPa·s
mass density (323.15 K, x1 = 0.8997): 971.5 ± 1.7 kg/m3
speed of sound (323.15 K, x1 = 0.8997): 1407.6 ± 4 m/s
viscosity (323.15 K, x1 = 0.8997): 1.384 ± 0.021 mPa·s
mass density (323.15 K, x1 = 1): 972.16 ± 1.8 kg/m3
speed of sound (323.15 K, x1 = 1): 1400.6 ± 4 m/s
viscosity (323.15 K, x1 = 1): 1.31 ± 0.02 mPa·s

From the NIST ThermoML archive (doi:10.1021/je301123j)
